Here are results for one molecule from patent US20140221490A1, “METHODS OF TREATING PAIN” (Hospira, Inc., priority 2011, published 2014).

The assay concerns acute moderate to severe pain after abdominal or pelvic surgery. Briefly: Multiple-dose randomized double-blind active- and placebo-controlled trial after abdominal or pelvic surgery: efficacy (SPID, pain relief, rescue morphine, patient global evaluation). Format: in vivo, human. How it is done: A 331 multicenter, multiple-dose, multiple-day, randomized, double-blind, parallel-group study was conducted on patients who had undergone abdominal or pelvic surgery. Patients were randomly assigned to 18.75 mg of diclofenac, 37.5 mg of diclofenac, 30 mg ketorolac, or placebo (1:1:1:1 ratio). The diclofenac formulation was Dyloject™. The patients selected for the study had moderate to severe pain within 6 hours postoperatively, defined as pain intensity of at least 50 mm on a 0-100 VAS.
At 16 U.S. sites, adults 18-65 years old were screened if they were scheduled for abdominal or pelvic surgery within 2 weeks. Key inclusion criteria were moderate-to-severe postoperative pain, defined as intensity≧50 mm on a 0-100 mm visual analog scale (VAS) within 6 hours after surgery, and weight>50 kg. Exclusion criteria were applied to the preoperative, intraoperative, and postoperative periods. Key preoperative exclusion criteria were a history of chronic disease or severe asthma, a recent (≦6 months) cardiovascular event or clinically-significant abnormal electrocardiogram (ECG) at screening, consumption of aspirin (except <325 mg/day for antiplatelet cardiac protection), opioids, other NSAIDs, other common analgesics, major and minor tranquilizers, or antihistamines≦24 hours before study drug initiation (except if administered during surgery), consumption of a monoamine oxidase inhibitor, tryptophan, carbamazepine, or valproate≦2 weeks before baseline, any clinically-significant laboratory abnormality, and previous or present peptic ulceration, gastrointestinal (GI) bleeding, or any bleeding diathesis. In addition, long-acting NSAIDs or COX-2 inhibitors were to be discontinued 3 days before surgery. Subjects were also excluded in the event of a known allergy to diclofenac, NSAIDs, morphine, anesthetics, or any excipient of the study preparation, receipt of any other investigational medication within 3 months prior to administration of the study drug, known or suspected alcohol or drug abuse, and unwillingness to remain in the clinical research center for 2 nights or return within 5-9 days for a safety follow-up visit. Female subjects with a positive pregnancy test within 24 hours of surgery or who were lactating at screening were also excluded. Intraoperative exclusion criteria were subcostal incision during surgery and concomitant use of NSAIDs or acetaminophen (other intraoperative medications were not restricted). Subjects with abnormal postoperative baseline ECG were excluded from study participation. In addition, patient-controlled analgesia (PCA) was not permitted before or during study drug dosing. Nitrous oxide and very short-acting barbiturates or benzodiazepines were allowed, provided that there was a ≧1.5-hour washout period before study drug administration, to avoid residual effects on pain intensity assessments. […] Postoperative regional anesthesia was not allowed.
This was a multicenter, multiple-dose, multiple-day, randomized, double-blind, active- and placebo-controlled, parallel-group phase 3 study. […] Assignments were made according to a computer-generated random-number code, and clinical staff and patients were blinded to study drug assignment. The first dose of study medication (1 mL IV bolus) was received by patients in all treatment arms within this first 6-hour period (Table 4).
Administration of the first dose of study drug was taken as time 0, and all subsequent dosing and evaluation time points were in relation to time of first study drug dose. Subsequent injections were received every 6 hours until discharge or until patient withdrawal/discontinuation from the study, due either to an adverse event (AE), inadequate pain control, noncompliance with the study protocol, or at the investigator's discretion. […]

As to `O=C(c1ccccc1)c1ccc2n1CCC2C(=O)O` (stereo not shown) [Ketorolac, ketorolac tromethamine], the “Cumulative Amount of Rescue Medication, Mean (SD)” value is on record as 6.7 (7.74) mg (0 to 24 hours, 30 mg (N = 82)); 8.5 (10.00) mg (0 to 48 hours, 30 mg (N = 82)); 8.5 (10.04) mg (0 to 72 hours, 30 mg (N = 82)); 8.5 mg (0 to 72 hours, 30 mg (N = 82), listed as ketorolac). The “Opioid sparing vs. placebo” value runs as follows: (0 to 24 hours, 30 mg (N = 82)) 40%; (0 to 48 hours, 30 mg (N = 82)) 46%; (0 to 72 hours, 30 mg (N = 82)) 47%. Further, the “Sum of the Pain Intensity Differences Over 0-48 Hours, Mean” value (30 mg (N = 82)) is reported as 1583.2 mm·hours. For the same molecule, for the setting “at 45 minutes after study drug initiation, 30 mg”, the “patients with at least a 30% reduction in pain intensity” value is reported as 57%. Besides, the “patients with ≧30% reduction in pain intensity” value (during the first 6-hour dosing period, 30 mg) is on record as 76.8%.
